From ChEMBL document CHEMBL1122452, “Mitomycin C analogues with secondary amines at position 7” (J Med Chem, 1983)

How the values were obtained:
[1] = system: P388; assay: Minimum effective dose required for antitumor activity against P-388 murine leukemia cells in mice.; format: functional; settings: Mus musculus, read-out: MED
[2] = system: P388; assay: Leukopenia % change in WBC at optimal dose on 3rd day.; format: functional, Mus musculus
[3] = system: P388; assay: Maximum % T/C against P-388 murine leukemia cells in mice.; format: functional, Mus musculus
[4] = E1/2 value related to the saturated calomal electrode.; format: ADME; set-up: unit not given here
[5] = system: P388; assay: Maximum % T/C with mitomycin C against P-388 murine leukemia cells in mice.; format: functional, Mus musculus
[6] = system: P388; assay: Optimal dose required for antitumor activity against P-388 murine leukemia cells in mice.; format: functional, Mus musculus
[7] = system: B16; assay: Tumor free survivors on 62nd day after ip administration of a dose of 3 mg/kg/day in B-16 melanoma in mice; format: functional, Mus musculus; settings: route intraperitoneal
[8] = system: B16; assay: Average weight change after ip administration of a dose of 3 mg/kg/day in B-16 melanoma in mice; format: functional, Mus musculus; settings: route intraperitoneal
[9] = system: B16; assay: Tumor free survivors on 62nd day after ip administration of a dose of 2 mg/kg/day in B-16 melanoma in mice; out of 10; format: functional, Mus musculus; settings: route intraperitoneal
[10] = system: B16; assay: Median survival time (% T/C) after ip administration of a dose of 2 mg/kg/day in B-16 melanoma in mice; format: functional, Mus musculus; settings: route intraperitoneal
[11] = system: B16; assay: Average weight change after ip administration of a dose of 2 mg/kg/day in B-16 melanoma in mice; format: functional, Mus musculus; settings: route intraperitoneal
[12] = system: B16; assay: Average weight change after ip administration of a dose of 5 mg/kg/day inB-16 melanoma in mice; format: functional, Mus musculus; settings: route intraperitoneal
[13] = system: B16; assay: Median survival time (% T/C) after ip administration of a dose of 3 mg/kg/day in B-16 melanoma in mice; format: functional, Mus musculus; settings: route intraperitoneal

SMILES	minimal effective dose [1]	Change in WBC [2]	T/C [3]	E1/2 [4]	T/C [5]	Dose [6]	Cures [7]	Average weight change [8]	Cures [9]	T/C [10]	Average weight change [11]	Average weight change [12]	T/C [13]
COC12[C@@H]3N[C@@H]3CN1C1=C(C(=O)C(N3CCCC(O)C3)=C(C)C1=O)[C@@H]2COC(N)=O (some centres undefined)	0.2 mg/kg	55%	250%	0.26	161%	12.8 mg/kg							
COC12[C@@H]3N[C@@H]3CN1C1=C(C(=O)C(N3CCSC3)=C(C)C1=O)[C@@H]2COC(N)=O (some centres undefined)	0.2 mg/kg	69%	222%	0.39	183%	25.6 mg/kg							
COC12[C@@H]3N[C@@H]3CN1C1=C(C(=O)C(N3CC3C(N)=O)=C(C)C1=O)[C@@H]2COC(N)=O (some centres undefined)	0.8 mg/kg		206%		233%	6.4 mg/kg							
COC12[C@@H]3N[C@@H]3CN1C1=C(C(=O)C(N3CCOCC3)=C(C)C1=O)[C@@H]2COC(N)=O (some centres undefined)	0.4 mg/kg	82%	271%	0.39	224%	25.6 mg/kg							
COC12[C@@H]3N[C@@H]3CN1C1=C(C(=O)C(N3CCNCC3)=C(C)C1=O)[C@@H]2COC(N)=O (some centres undefined)	0.2 mg/kg		200%	0.26	288%	12.8 mg/kg							
CCN(CC)C1=C(C)C(=O)C2=C(C1=O)[C@H](COC(N)=O)C1(OC)[C@@H]3N[C@@H]3CN21 (some centres undefined)	1.6 mg/kg		222%	0.26	211%	25.6 mg/kg							
COC12[C@@H]3N[C@@H]3CN1C1=C(C(=O)C(N3CC3C#N)=C(C)C1=O)[C@@H]2COC(N)=O (some centres undefined)	0.2 mg/kg	2%	339%	0.3	228%	12.8 mg/kg	0	0 g	5	307%	0 g	-1.3 g	65%
COC12[C@@H]3N[C@@H]3CN1C1=C(C(=O)C(N3CCCC3)=C(C)C1=O)[C@@H]2COC(N)=O (some centres undefined)	0.4 mg/kg	64%	>333%	0.35	161%	25.6 mg/kg							
CCOC(=O)C1CN1C1=C(C)C(=O)C2=C(C1=O)[C@H](COC(N)=O)C1(OC)[C@@H]3N[C@@H]3CN21 (some centres undefined)			133%		233%	12.8 mg/kg							
COC12[C@@H]3N[C@@H]3CN1C1=C(C(=O)C(N3CC3c3ccccc3)=C(C)C1=O)[C@@H]2COC(N)=O (some centres undefined)	0.2 mg/kg	38%	311%		200%	3.2 mg/kg							
COC12[C@@H]3N[C@@H]3CN1C1=C(C(=O)C(N3CC3)=C(C)C1=O)[C@@H]2COC(N)=O (some centres undefined)	0.025 mg/kg	11%	266%	0.31	300%	1.6 mg/kg							
COC(=O)C1CN1C1=C(C)C(=O)C2=C(C1=O)[C@H](COC(N)=O)C1(OC)[C@@H]3N[C@@H]3CN21 (some centres undefined)	1.6 mg/kg		147%		288%	6.4 mg/kg							
COC12[C@@H]3N[C@@H]3CN1C1=C(C(=O)C(N3CCC(N4CCCCC4)CC3)=C(C)C1=O)[C@@H]2COC(N)=O (some centres undefined)	1.6 mg/kg	29%	194%	0.28	200%	12.8 mg/kg							
COC12[C@@H]3N[C@@H]3CN1C1=C(C(=O)C(N3CCc4ccccc43)=C(C)C1=O)[C@@H]2COC(N)=O (some centres undefined)	0.8 mg/kg		150%		288%	12.8 mg/kg							
COC12[C@@H]3N[C@@H]3CN1C1=C(C(=O)C(N(C)C)=C(C)C1=O)[C@@H]2COC(N)=O (some centres undefined)	0.2 mg/kg		238%		325%	25.6 mg/kg							
COC12[C@@H]3N[C@@H]3CN1C1=C(C(=O)C(N(C)CCN(C)C)=C(C)C1=O)[C@@H]2COC(N)=O (some centres undefined)	0.8 mg/kg		267%	0.33	211%	25.6 mg/kg							
COC12[C@@H]3N[C@@H]3CN1C1=C(C(=O)C(N3CCSCC3)=C(C)C1=O)[C@@H]2COC(N)=O (some centres undefined)	0.4 mg/kg	44%	211%		178%	3.2 mg/kg							
COC12[C@@H]3N[C@@H]3CN1C1=C(C(=O)C(N3CC3C)=C(C)C1=O)[C@@H]2COC(N)=O (some centres undefined)	0.1 mg/kg	24%	233%	0.32	250%	3.2 mg/kg							
COC12[C@@H]3N[C@@H]3CN1C1=C(C(=O)C(N3CCN(c4ccc(C(C)=O)cc4)CC3)=C(C)C1=O)[C@@H]2COC(N)=O (some centres undefined)	0.4 mg/kg	40%	161%		200%	3.2 mg/kg							
COC12[C@@H]3N[C@@H]3CN1C1=C(C(=O)C(N3CCC(O)C3)=C(C)C1=O)[C@@H]2COC(N)=O (some centres undefined)	0.8 mg/kg		163%	0.37	219%	25.6 mg/kg							
COC12[C@@H]3N[C@@H]3CN1C1=C(C(=O)C(N3CCN(C)CC3)=C(C)C1=O)[C@@H]2COC(N)=O (some centres undefined)	0.2 mg/kg	34%	261%	0.24	183%	3.2 mg/kg							
COC12[C@@H]3N[C@@H]3CN1C1=C(C(=O)C(N3CCCCC3)=C(C)C1=O)[C@@H]2COC(N)=O (some centres undefined)	0.2 mg/kg		183%	0.27	322%	12.8 mg/kg							
COC12[C@@H]3N[C@@H]3CN1C1=C(C(=O)C(N3CC=CC3)=C(C)C1=O)[C@@H]2COC(N)=O (some centres undefined)	0.2 mg/kg	-13%	216%		268%	12.8 mg/kg							
COC12[C@@H]3N[C@@H]3CN1C1=C(C(=O)C(N3CCCC(C)C3)=C(C)C1=O)[C@@H]2COC(N)=O (some centres undefined)	0.2 mg/kg		238%		319%	25.6 mg/kg							
COC12[C@@H]3N[C@@H]3CN1C1=C(C(=O)C(N3CCC(O)(O)CC3)=C(C)C1=O)[C@@H]2COC(N)=O (some centres undefined)	0.2 mg/kg		231%	0.28	219%	25.6 mg/kg							
